Measured values: US12296018B2, “Albumin binding peptide-drug (AlBiPeD) conjugates and methods of making and using same” (priority 2018, dated 2025)
Several values for one entry are separate records, joined by “and”; a condition that tells them apart may be missing. Equal values may be shown once.

Key:
[1] = biological target: T1, human serum albumin (HSA) (Homo sapiens, UniProt P02768); assay: Isothermal titration calorimetry of ABD-Dox with HSA; format: binding; conditions: ITC, 37° C., PBS
T1 construct: purchased Sigma-Aldrich (St. Louis, MO)
Method: (§1) The gel was stained with SimplyBlue stain according to the manufacturer's instructions and imaged using the Gel Doc imaging system (Bio-Rad, Hercules, CA). Isothermal titration calorimetry was done using a standard volume Nano ITC from TA instruments (Lindon, Utah). […] The calorimetric data were analyzed by NanoAnalyze software (TA instruments, Lindon, UT) and were fit to an independent binding site model to compute the thermodynamic parameters including dissociation constant (KD), binding stoichiometry (n), enthalpy (ΔH), and entropy (ΔS).

[2] = tested on: C26 colon carcinoma tumors; assay: In vivo tumor regression, syngeneic C26 model; set-up: species or system BALB/c mice
Method: In vivo tumor regression For in vivo tumor implantation, C26 cells at 5×10^5 cells in 30 μL Minimum Essential Medium (MEM) (Invitrogen, Carlsbad, CA) and MIA PaCa-2 cells at 2×10^6 cells in 50 μL 10:90 v/v MEM: Matrigel matrix (Corning Inc, Corning, New York) were inoculated in the right flank of normal and athymic nude BALB/c mice, respectively. Tumor cells were allowed to grow until the tumor volume, calculated as π/6×length×width^2, reached 75-100 mm^3 for C26 tumors and 100-125 mm^3 for MIA PaCa-2 tumors. Tumor bearing mice were then treated with ABD-Dox at 10 and 20 mg Dox Equiv.kg^−1 BW, AlDox at 20 mg Dox Equiv.kg^−1 BW, and free Dox at 10 mgkg^−1 BW. Tumor volumes and body weights were monitored for 100 days after treatment and mice displaying excessive tumor volume (>[…]), body weight loss (>15%), or ill health were euthanized. Tumor growth and survival data were analyzed by GraphPad Prism software. Survival curves were generated with the Kaplan-Meier method and compared with the log-rank (Mantel-Cox) test. Tumor growth data were compared with a paired one-way ANOVA followed by Tukey-Kramer (Tukey's) post-hoc test. P<0.05 was considered as statistically significant.
For in vivo tumor regression studies, a single dose of ABD-Dox was injected via tail vein at 10 mg Dox Equiv.kg^−1 BW (MTD of free Dox) and 20 mg Dox Equiv.kg^−1 BW (MTD of ABD-Dox) in separate cohorts of BALB/c mice with s.c. C26 tumors or nude mice with s.c. MIA Paca-2 tumors. Free Dox was injected at its MTD of 10 mgkg-1 BW, and AlDox was injected at 20 mg Dox Equiv.kg^−1 BW, a dose that was reported to be safe in previous studies. All animals were injected when the tumors were 75-100 mm; in size for C26 tumors and 100-125 mm^3 for MIA PaCa-2 tumors.

[3] = biological target: T2, mouse serum albumin (MSA) (Mus musculus, UniProt P07724); assay: Native-PAGE mobility shift with MSA; format: binding; conditions: 1:1 molar ratio
T2 construct: purchased Sigma-Aldrich (St. Louis, MO)
Method: as §1

[4] = tested on: AsPC-1 pancreatic cancer cells; assay: In vitro cytotoxicity (MTS, 72 h) AsPC-1; format: cell-based, human; conditions: 72 h incubation, Dox Equiv. concentration
Method: In vitro cytotoxicity C26 murine colon carcinoma cells and three different pancreatic cancer cell lines, BxPC-3, AsPC-1, and MIA PaCa-2, were used to study the in vitro cytotoxicity of ABD-DOX and Dox. Cells were cultured and grown as monolayers at 37° C. with C02 in a humidified incubator and were passaged at ˜80% confluency using 0.05% trypsin-EDTA (Invitrogen, Carlsbad, CA). C26, BxPC-3, AsPC-1, and MIA PaCa-2 cells were seeded in 96-well plates (5,000 cells/well) and incubated overnight. Three-fold serial dilutions of drug were then added to the wells in triplicate and also to control wells (media with no cells) to correct for the background Dox absorbance. After 72 h treatment, 20 μL MTS reagent was added to each well and was incubated for 3 h at 37° C., and the absorbance at 490 nm was measured using a Victor3 plate reader (Perkin Elmer, Boston, MA). Cell viability (%) was defined as the percentage of the absorbance of the drug-treated cells relative to buffer-treated cells and IC50 values were determined using logistic non-linear regression analysis with GraphPad Prism software. The IC50 was defined as the Dox Equiv. concentration of formulations resulting in 50% growth inhibition compared with a negative control, buffer-treated cells.

[5] = single dose 10 mg Dox Equiv.kg^−1 BW
[6] = single dose 20 mg Dox Equiv.kg^−1 BW

T2 sequence (P07724 25-608): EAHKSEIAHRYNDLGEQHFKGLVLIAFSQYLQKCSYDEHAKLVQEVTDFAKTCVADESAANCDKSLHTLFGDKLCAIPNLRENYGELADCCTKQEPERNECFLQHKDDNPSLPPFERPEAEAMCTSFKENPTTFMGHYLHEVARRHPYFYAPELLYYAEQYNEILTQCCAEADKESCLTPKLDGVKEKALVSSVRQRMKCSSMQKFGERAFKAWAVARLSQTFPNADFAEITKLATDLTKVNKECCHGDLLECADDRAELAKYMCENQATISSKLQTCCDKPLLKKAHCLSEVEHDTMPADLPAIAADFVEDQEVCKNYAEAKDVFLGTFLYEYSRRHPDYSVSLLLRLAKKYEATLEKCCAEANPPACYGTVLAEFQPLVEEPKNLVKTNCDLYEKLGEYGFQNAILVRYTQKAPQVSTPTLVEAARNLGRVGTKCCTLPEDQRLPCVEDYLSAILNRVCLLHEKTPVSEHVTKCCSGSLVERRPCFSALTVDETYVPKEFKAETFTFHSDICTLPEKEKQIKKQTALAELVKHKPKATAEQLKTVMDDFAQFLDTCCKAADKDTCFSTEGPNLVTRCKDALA

Substance: ABD-Dox (GLAEAKVLANRELDKYGVSDYYKNLINNAKTVEGVKALIDEILAALPCGGCGGCGGCGG)
- ΔH [1]: -6.72 kcal/mol
- ΔS [1]: 41.5 Jmol^−1K^−1
- n (binding stoichiometry) ([1]; independent binding site model): 1.03 and 1.0
- tumor disappearance ([2]; 10 mg Dox Equiv.kg^−1 BW): complete tumor disappearance within 2 weeks
- tumor recurrence in mice with eradicated tumors ([2]; 10 mg Dox Equiv.kg^−1 BW): 33%
- eradication of C26 tumors ([2]; 20 mg Dox Equiv.kg^−1 BW): incomplete eradication
- mice that did not survive over the 100-day course of study ([2]; 20 mg Dox Equiv.kg^−1 BW): 75%
- recurrence of the primary tumor ([2]; 20 mg Dox Equiv.kg^−1 BW): without recurrence of the primary tumor in any mice
- therapeutic efficacy vs AlDox in terms of overall survival ([2]; 20 mg Dox Equiv.kg^−1 BW): higher
- therapeutic efficacy vs AlDox with respect to tumor regression ([2]; 20 mg Dox Equiv.kg^−1 BW): equivalent
- survival compared with free Dox (10 mgkg^−1 BW) [2, 5]: superior efficacy
- tumor regression compared with free Dox (10 mgkg^−1 BW) [2, 5]: superior efficacy
- survival compared with free Dox (10 mgkg^−1 BW) [2, 6]: superior efficacy
- tumor regression compared with free Dox (10 mgkg^−1 BW) [2, 6]: superior efficacy
- binding to MSA by mobility shift [3]: confirmed binding
- IC50 [4]: 15.2 µM
